In patent publication US20220306623A1, “PYRIDYL OR PYRIMIDYL MTOR KINASE INHIBITORS” (GLAXOSMITHKLINE INTELLECTUAL PROPERTY DEVELOPMENT LIMITED, priority 2019, published 2022):

tested on: phosphorylated Akt at serine 473 (pAKTs473) in primary human lung fibroblasts; experiment: High throughput phosphorylated Akt (Ser473) in vitro immunoassay (MSD); type: cell-based; conditions: Fibroblast, primary human lung fibroblasts (Lonza), 384-well, compound 1 h, PDGF-BB 10 ng/ml 10 min, read-out: mean pIC50, pAKTser473 high throughput immunoassay (converted)
From the text: Immunoassay to measure effect of test compounds on phosphorylated Akt at serine 473 (pAKTs473) in primary human lung fibroblasts (Lonza Group Ltd, Basel, Switzerland, Catalogue No. CC-2512) using the MesoScale Discovery (MSD) platform to quantify levels of total Akt and pAKTser473.
Human lung fibroblasts were routinely maintained in fibroblast basal medium supplemented with 2% foetal bovine serum (FBS), 0.1% human fibroblast growth factor (FGF)-B, 0.1% insulin, 0.1% GA-100 (Lonza Group Ltd, Basel, Switzerland, Catalogue No. CC-3132) at 37° C. in 5% CO2 according to the manufacturer's protocol.
For the assay, cells were harvested using Trypsin/EDTA, (Lonza Group Ltd, Basel, Switzerland, Catalogue No. CC-5012), at working concentration of 0.025%, resuspended to give 3×10^5 cells/ml and 50 ul/well seeded into 384-well plates (Greiner Group, Kremsmunster, Austria, Catalogue No. 781091) in media containing 0.4% FBS and incubated o/n at 37° C. in 5% CO2.
Test compounds were dissolved in 100% DMSO to give 10 mM stock solutions and serially diluted to generate an 11-point concentration response curve. Compound were further diluted by […] into 384-well V-bottom polypropylene plates (Greiner Group, Kremsmunster, Austria, Catalogue No. 781280) with media containing 0.4% FBS to give 50 µM top compound concentration in 0.5% DMSO.
Compounds were transferred to 384-well plates contacting cells (0.1% DMSO final) and incubated for 1 h at 37° C. in 5% CO2, prior to stimulation with platelet-derived growth factor (PDGF)-BB (R&D Systems, Catalogue No. 220-BB) at 10 ng/ml (final) for 10 min at RT. Cell assay plates were incubated on ice and treated with lysis buffer (Cell Signalling Technology, Catalogue No. 9806) containing protease and phosphatase inhibitors (Thermo Scientific, Catalogue No. 78444) followed by shaking for 30 min at 4° C.
MSD plates (MSD, MA6000 384-well GAR plate, Catalogue No. L21RA-2) were blocked with blocking buffer containing TBS (MSD, Cat. No. R61TX-1) with 0.5% bovine serum albumin (BSA) (Sigma Aldrich, Cat. No. A7906), 0.1% tween-20 (Sigma Aldrich, Catalogue No. P2287) and coated with rabbit-anti-human pAkt (s473) ab (Cell Signalling Technology, Catalogue No. CST #4060) at RT with shaking, followed by washing (×3) with 1×TBS wash reagent containing 0.1% Tween-20. Cell lysates (30 ul) were added and MSD plates centrifuged at 1000 rpm at 4° C. o/n.
Plates were washed with 1×TBS wash buffer (×3), prior to addition of mouse-anti-human-total Akt ab (1 mg/ml) (Upstate (Milipore), Catalogue No. 05-591) in blocking buffer and shaken at RT for 1 h. After washing with 1×TBS wash buffer (×3), plates were incubated with goat-anti-mouse SULFO-TAG detection ab (MSD, Catalogue No. R32AC-1) (1:500 in blocking buffer) for 1 h at RT. Plates were washed with 1×TBS (×3) and read buffer (2×) (MSD, Catalogue No. R92TC-1) added before detecting electrochemiluminescence (MSD Sector Imager 6000).
Data analysis was performed by determining % inhibition values for test compounds relative to the minimum (+PDGF-BB stimulation) and maximum responses (no PDGF-BB stimulation) with non-linear regression analysis to determine IC50 values for test compounds.

Row | Structure (SMILES) | IC50 [nM]
1 | CC[C@H]1COCC(=O)N1c1cc(C2(S(C)(=O)=O)CCOCC2)cc(-c2ccc3[nH]c(C)cc3n2)n1 [Example 25, (S)-5-ethyl-4-(6-(2-methyl-1H-pyrrolo[3,2-b]pyridin-5-yl)-4-(4-(methylsulfonyl)tetrahydro-2H-pyran-4-yl)pyridin-2-yl)morpholin-3-one] | 2.51 to 25.1
2 | CC[C@H]1COCC(=O)N1c1cc(C2(S(C)(=O)=O)CCOCC2)cc(-c2ccc3[nH]c(CO)cc3n2)n1 [Example 26] | 2.51 to 25.1
3 | CNCc1cc2nc(-c3cc(CS(C)(=O)=O)cc(N4CCO[C@H](C)[C@H]4C)n3)ccc2[nH]1 [Example 8, 1-(5-(6-((2R,3R)-2,3-dimethylmorpholino)-4-((methylsulfonyl)methyl)pyridin-2-yl)-1Hpyrrolo[3,2-b]pyridin-2-yl)-Nmethylmethanamine] | 2.51 to 25.1
4 | CCc1cc2nc(-c3nc(CS(C)(=O)=O)cc(N4C(=O)COC[C@@H]4CC)n3)ccc2[nH]1 [Example 15, (5S)-5-ethyl-4-(2-{2-ethyl-1H-pyrrolo[3,2-b]pyridin-5-yl}-6-(methanesulfonylmethyl)pyrimidin-4-yl)morpholin-3-one] | 2.51 to 25.1
5 | CC[C@H]1COCCN1c1cc(C2(S(C)(=O)=O)CCOCC2)nc(-c2ccc3[nH]c(C)cc3n2)n1 [Example 13, (3S)-3-ethyl-4-[6-(4-methanesulfonyloxan-4-yl)-2-{2-methyl-1H-pyrrolo[3,2-b]pyridin-5-yl}pyrimidin-4-yl]morpholine] | 2.51 to 25.1
6 | CC[C@H]1COCCN1c1cc(CS(N)(=O)=O)cc(-c2ccc3[nH]c(C)cc3n2)n1 [Example 23, (S)-(2-(3-ethylmorpholino)-6-(2-methyl-1H-pyrrolo[3,2-b]pyridin-5-yl)pyridin-4-yl)methanesulfonamide] | 2.51 to 25.1
7 | CC[C@H]1COCCN1c1cc(CS(=O)(=O)NC)nc(-c2ccc3[nH]c(CO)cc3n2)n1 [Example 10, 1-{6-[(3S)-3-ethylmorpholin-4-yl]-2-[2-(hydroxymethyl)-1H-pyrrolo[3,2-b]pyridin-5-yl]pyrimidin-4-yl}-N-methylmethanesulfonamide] | 2.51 to 25.1
8 | CC[C@H]1COCCN1c1cc(CS(C)(=O)=O)nc(-c2ccc3[nH]c(CNC)cc3n2)n1 [Example 1, [(5-{4-[(3S)-3-ethylmorpholin-4-yl]-6-(methanesulfonylmethyl)pyrimidin-2-yl}-1H-pyrrolo[3,2-b]pyridin-2-yl)methyl](methyl)amine] | 2.51 to 25.1
9 | CC[C@H]1COCCN1c1cc(CS(=O)(=O)N(C)C)nc(-c2ccc3[nH]c(CNC)cc3n2)n1 [Example 16, 1-{6-[(3S)-3-ethylmorpholin-4-yl]-2-{2-[(methylamino)methyl]-1H-pyrrolo[3,2-b]pyridin-5-yl}pyrimidin-4-yl}-N,N-dimethylmethanesulfonamide] | 2.51 to 25.1
10 | CC[C@H]1COCC(=O)N1c1cc(CS(C)(=O)=O)cc(-c2ccc3[nH]c(C)cc3n2)n1 [Example 24, (S)-5-ethyl-4-(6-(2-methyl-1H-pyrrolo[3,2-b]pyridin-5-yl)-4-((methylsulfonyl)methyl)pyridin-2-yl)morpholin-3-one] | 2.51 to 25.1
11 | CC[C@H]1COCCN1c1cc(CS(=O)(=O)N(C)C)nc(-c2ccc3[nH]c(CO)cc3n2)n1 [Example 9, 1-{6-[(3S)-3-ethylmorpholin-4-yl]-2-[2-(hydroxymethyl)-1H-pyrrolo[3,2-b]pyridin-5-yl]pyrimidin-4-yl}-N,N-dimethylmethanesulfonamide] | 2.51 to 25.1
12 | CC[C@H]1COCC(=O)N1c1cc(CS(C)(=O)=O)nc(-c2ccc3[nH]c(C)cc3n2)n1 [Example 14, (5S)-5-ethyl-4-[6-(methanesulfonylmethyl)-2-{2-methyl-1H-pyrrolo[3,2-b]pyridin-5-yl}pyrimidin-4-yl]morpholin-3-one] | 2.51 to 25.1
